Assay results from a melting point compilation (Tetko et al.; mined from patent text by program, amines drawn as free bases though some values may be those of a salt).
Starred links: 1 amine or outer side, 2 acyl side, 3 side chain; linkers in the order of their positions; H or OH if unused. Non-standard residues stand in square brackets, D forms with d. Residues, ends and D or L forms follow the SMILES beside them. *: point of attachment. γGlu = O=C(O)[CH](CCC(=O)[*:2])N[*:1]; Lauroyl = CCCCCCCCCCCC(=O)*

Row | melting point [°C] | Structure (SMILES)
1 | 128 to 129 | CSc1cc(-c2ccc(C(F)(F)F)cc2)ccc1C#N
2 | 204 to 206 | COc1nccc2cc(S(N)(=O)=O)oc12
3 | 206 to 208 | O=c1ccn(-c2cccc(C(F)(F)F)c2)nc1-c1c[nH]nc1-c1ccccc1
4 | 303 | Cn1cc(-c2cc3cccnc3[nH]2)c2cc(-c3nn[nH]n3)ccc21
5 | 122 to 123 | Cc1cc(N(C)Cc2oc(-c3ccc(C(F)(F)F)cc3)nc2C)cc(C)c1OCC(=O)O
6 | 104 to 105 | COc1ccc(C2(c3ccc(OC(F)F)cc3)N=C(N)N(C)C2=O)cc1C#N (stereo not drawn)
7 | 114 | CCCc1nnc2n1-c1ccccc1CS2
8 | 118 to 120 | Cn1nc(C#Cc2ccccc2)ccc1=O
9 | 57 to 59 | Cc1ccc(S(=O)(=O)OCCC2CCc3ccccc3O2)cc1 (stereo not drawn)
10 | 145 to 146 | COC(=O)C1=C(C)NC(CO)=C(C(=O)OC)C1c1cccc([N+](=O)[O-])c1 (stereo not drawn)
11 | 180 to 182 | COc1ccc2c(c1)c(Cc1cc(=O)n(-c3ccc(C(F)(F)F)cc3)[nH]1)c(C)n2C(=O)c1ccc(Cl)cc1
12 | 174 to 176 | CC(C)c1cccc(C(C)C)c1NC(=O)Cc1ccccc1NCC(c1ccccc1)c1ccccc1
13 | 178 to 179 | O=C1C2=C(CCCC2)C(O)N1c1ccc(Cl)cc1F (stereo not drawn)
14 | 107 to 109 | CCCCCCCCCCCCCCCC(=O)Nc1cscc1NC(=O)CCCCCCCCCCCCCCC
15 | 177 | Nc1ccc2ccc(Oc3ccc(Cl)cc3)nc2n1
16 | 237 to 239 | CC1(C)CC(=O)Nc2c(Br)cc3c(c21)OC(CBr)C3 (stereo not drawn)
17 | 137 | CCCc1cc(-c2ccc(F)c3ccccc23)nc(N)n1
18 | 188 to 190 | CCc1nc2c(c3c1[nH]c1ccccc13)C(=O)CC(C)(C)C2
19 | 205 to 210 | COc1ccc(Cl)cc1C1(F)C(=O)Nc2cc(I)ccc21 (stereo not drawn)
20 | 150 to 152 | CCOC(=O)C=Cc1cc(OC)ccc1-c1ccc(-c2ccc(OC)c(Cl)c2)c(C=O)c1
21 | 119 to 120 | CC(C)CC(CC1CCCCC1)Cn1ccnc1 (stereo not drawn)
22 | 180 to 186 | CCCCCCCCCCCC(=O)NC(C)C(=O)NC(CCC(=O)NC(CCCCN)C(=O)O)C(=O)O (stereo not drawn) (Lauroyl-Ala-[γGlu]-Lys-OH; configuration not given here)
23 | 153 to 155 | O=S1(=O)CCN(c2ccc(O)cc2)CC1
24 | 133 to 135 | CC(O)Cn1cc(C2=C(c3cn(CC(C)O)c4ccccc34)C(=O)NC2=O)c2ccccc21 (stereo not drawn)

Row | melting point [°C] | Structure (SMILES)
25 | 185 to 186 | O=C(O)c1snc(-c2cccc(Cl)c2)c1C(=O)O
26 | 99 to 101 | COCOc1c2c(cc3ccccc13)N(C(=O)OC(C)(C)C)CC2CCl (stereo not drawn)
27 | 213 to 215 | O=C1CCCN1CC1CCN(c2nc(C(F)(F)F)ncc2O)CC1
28 | 159 to 161 | O=[N+]([O-])c1cnc(Nc2ccccc2F)c([N+](=O)[O-])c1
29 | 165 | Cn1cc(-c2ccccc2)c(=O)c(-c2ccccc2F)c1
30 | 197 to 200 | COc1cc(-c2nn(Cc3ccccc3)c(=O)c3ccccc23)ccc1O
31 | 112 to 114 | CC(C)(C)OC(=O)NC(C)(COCc1ccccc1)C(=O)O (stereo not drawn)
32 | 139 | OCCN1CCC(Nc2nc3ccccc3n2Cc2ccc(F)cc2)CC1
33 | 159 to 161 | COc1ccc2c(c1)CCC1C2CCC2(C)C1CCC2N(C=O)CCCO (stereo not drawn)
34 | 167 to 169 | Cn1cc(Br)c(=O)c(-c2cccc(C(F)(F)F)c2)c1
35 | 149 to 151 | COc1cc2c(cc1Nc1ncc(Cl)c(N[C@H]3[C@@H](C(N)=O)[C@@H]4C=C[C@H]3C4)n1)NCCN(CC1CC1)C2
36 | 95 to 96 | CCCOc1c(OCc2ccccc2)cc(C2CCC(=O)O2)cc1S(=O)(=O)CCC (stereo not drawn)
37 | 181 to 182 | CC(=O)SCC(=O)C1CCC2C3CCC4CC(O)C(N5CCOC(C)(C)C5)CC4(C)C3C(=O)CC12C (stereo not drawn)
38 | 257 to 259 | CN(C)c1ccc(CCc2ccc3c(=O)[nH]ncc3c2)cc1
39 | 92 | COC(=O)C1CC(O)CN1C(=O)c1ccc(OC)cc1 (stereo not drawn)
40 | 192 to 194 | CCOc1cc(OCCCc2cn(-c3ccc(C(F)(F)F)cn3)nc2O)ccc1CCC(=O)O
41 | 92.5 to 94 | C=CCc1ccc(OCCC(C)C)c2c(=O)cc(-c3nnnn3Cc3ccccc3)oc12
42 | 256 | CCCC1=C(C#N)C(c2ccccc2Cl)c2c(n[nH]c2-c2cccs2)N1 (stereo not drawn)
43 | 50 to 55 | CCOc1ccc(C(C)=O)cc1C(=O)OC
44 | 168 | CC(=O)Oc1ccc2c(c1)Cc1cc(OC(C)=O)ccc1-2
45 | 152 to 154 | Cn1cc(-c2cccc(C(F)(F)F)c2)c(=O)c(-c2ccccc2F)c1
46 | 61.7 to 62.7 | CSc1ccc(F)c(C#N)c1
47 | 159 to 160 | CN1OCC(=O)N(c2ccc(Oc3ccccc3)cc2)C1=S
48 | 146 to 148 | CC1CCN(c2cc3nc(C(C)(C)C)sc3cc2N)CC1

Row | melting point [°C] | Structure (SMILES)
49 | 183 to 185 | CC(=O)SCCC(=O)N1N=C(c2ccc(S(N)(=O)=O)cc2)CC1C(=O)O (stereo not drawn)
50 | 212 to 213 | CCCCC(Oc1c(Br)cc(-c2c3ccccc3c(Br)c3sc4ccccc4c23)cc1Br)C(=O)O (stereo not drawn)
51 | 109 to 111 | CC(C)CNC(=O)C(C)NC(=O)OCc1ccccc1 (stereo not drawn)
52 | 138 to 139 | COC(=O)NCc1nc(C(C)C)c(Sc2cc(Cl)cc(Cl)c2)n1C
53 | 148 to 149 | Cc1oc(-c2ccccc2)nc1COc1ccc(CON=C2CC(C(=O)O)c3ccccc32)cc1 (stereo not drawn)
54 | 154 to 156 | COC(=O)c1c(N)ncn1-c1c(C)cccc1C
55 | 112 to 113 | COC(=O)c1ccc(-c2nc(-c3ccc(Oc4ccccc4)cc3)no2)cc1
56 | 220 to 222 | Cn1c(C(N)=O)nc([N+](=O)[O-])c1CBr
57 | 78 to 79 | COc1cc(C2CCCCC2)c(Cl)cc1CCO
58 | 123 to 125 | CCCCCCCNC(=O)Nc1ccccc1C(=O)Nc1c(C(C)C)cccc1C(C)C
59 | 123 to 128 | Cc1cccc(-c2ccc(S(=O)(=O)N3c4ccccc4CC3C(=O)O)cc2)c1 (stereo not drawn)
60 | 39 to 40 | COC(=O)[C@@H](C)Nc1ncccc1[N+](=O)[O-]
61 | 187 to 188 | CC(C)Cc1ccccc1Sc1c(O)cc(-c2cccc(-c3ccccc3)c2)oc1=O
62 | 120 to 122 | Fc1ccc(-c2cn(CCC#Cc3ccccn3)nn2)cc1
63 | 234 to 235 | CCCCN(C(=O)c1cnc(N2CCNC2=O)nc1N)c1cccc(C(F)(F)F)c1
64 | 268 to 269 | CCCNC(=O)C(C)NC(=O)C(C)NC(=O)C(C)NC(=O)OCc1ccccc1 (stereo not drawn)
65 | 122 to 124 | CCCNC(=NC(=Nc1ccccc1)N1CCOCC1)C(C)C
66 | 86 to 88 | CC(C)(C)OC(=O)NCc1ccnc(Cl)n1
67 | 72 to 74 | COc1cc2c(cc1OC)C(C=Cc1cccc(OC)c1OC)=NN(C(C)=O)C(C)C2 (stereo not drawn)
68 | 189 to 191 | COC(=O)c1ccc(-c2ccc3cc(OCc4ccc(F)cc4)c(C45CC6CC(CC(C6)C4)C5)cc3c2)cc1O
69 | 155 to 158 | CCCCOCCOc1ccc(-c2ccc3c(c2)C=C(C(=O)O)CCN3c2csc(C)n2)cc1
70 | 73 to 75 | C#CCOc1cc(N=C(C=NOC)N2CCCC2)c(F)cc1Cl
71 | 155 | C=CCc1c(-c2cc(=O)c3c(O)cc(OCC(=O)OCC)cc3o2)ccc(OC)c1O
72 | 118 to 120 | COc1cc2c(c3c1OC(C)(C)C3)C(c1cccc(SCC(N)=O)c1)=NC(C)(C)C2

Row | melting point [°C] | Structure (SMILES)
73 | 231 to 232 | N#Cc1cc2c(c(C(=O)O)c1-c1ccccc1)NCCC2C(=O)O (stereo not drawn)
74 | 230 to 232 | Cc1cccc(C(C)C)c1NC(=O)NC1(c2cccs2)CCCCC1
75 | 145 to 148 | CCN(CC)Cc1cnc2cc(NC(=O)c3ccc(-c4ccc(F)cc4)cc3)c(C)cc2c1
76 | 111 to 112 | Cc1cc(-c2noc(CO)n2)ccc1Br
77 | 157 to 158 | CC(C)(C)c1ccc(CCNc2ncnc3ccncc23)cc1
78 | 142 to 144 | CC(=O)N1CCC(=O)C(C(c2ccc(C)cc2)c2ccc(C)cc2)C1 (stereo not drawn)
79 | 204 | COc1ccc(N2CCN(c3ccc(NC(=O)Oc4ccccc4)cc3)CC2)cc1
80 | 91 to 95 | CC(C)(C)C(O)c1ccc(CO)cc1 (stereo not drawn)
81 | 130 to 132 | C=CCOC(=O)c1ccc(OC(=O)c2ccc(O[Si](C)(C)C(C)(C)C)c(C34CC5CC(CC(C5)C3)C4)c2)nc1
82 | 112 to 113 | COc1ccc(-n2nc(OC)cc2-c2ccc(C#N)cc2)cc1
83 | 90 to 91 | CNc1c(C(=O)OC)c(C)nc2c1c1ccccc1n2C
84 | 67 to 68 | C=CCCCOc1cc(OCCCCCCCC)ccc1C(=O)O
85 | 167 to 168 | COC(=O)c1cc(OC)c(OC)cc1NC(=O)c1sccc1S(=O)(=O)Nc1onc(C)c1Cl
86 | 138 to 139 | C=CCN(C(=O)OC(C)(C)C)c1cc(OC)c(-c2ccc(C[C@H](NC(=O)c3c(Cl)cccc3Cl)C(=O)O)cc2)c(OC)c1
87 | 116 to 117 | CC(C(=O)Nc1cccc2c1C(=O)c1c(NC(=O)C(C)N(C)C)cccc1C2=O)N(C)C (stereo not drawn)
88 | 138 to 139 | CCOC(OCC)c1ccccc1CN(CCn1ccc2oc(C)cc2c1=O)Cc1ccc2c(c1)N(C)C(=O)C(C)(C)C(=O)N2CC
89 | 53 to 54 | CCCCCCCCCCCC(=O)O[C@H](CCCCCCCCCCC)CC(=O)N[C@@H](CO)C(=O)OCc1ccccc1
90 | 103 to 105 | NCCCCC(=O)N1CCC(c2[nH]nc3c2C(=O)c2c(NC(=O)NN4CCOCC4)cccc2-3)CC1
91 | 38 to 39 | Cc1cc(CCCCCOc2ccc(C3OC=CO3)cc2)on1
92 | 122 to 124 | [N-]=[N+]=C1C(=O)CC(c2ccccc2)CC1=O (stereo not drawn)
93 | 185 to 189 | COC(C)c1nc2c(N)nc3ccccc3c2n1CC(C)C (stereo not drawn)
94 | 158 to 159 | O=C(O)CCCCCCCOc1nc(-c2ccccc2)c(-c2ccccc2)n1-c1ccccc1

Row | Structure (SMILES) | melting point [°C]
95 | CC(C)(N)Cc1c[nH]c2ccc(Br)cc12 | 150 to 155
96 | COc1cc(C2C3=C(COC3=O)N(C)c3cc4c(cc32)OCO4)cc(OC)c1O (stereo not drawn) | 250
97 | CCCCCCCC[C@]1(C)OO[C@@H]2C[C@H]1CC(=O)[C@@H]2C | 27
98 | C=CC1CCC2(C)C(CCC3C4CCC(=O)C4(C)CCC32)C1 (stereo not drawn) | 100 to 102
